Settings: Liquid; for mass density: 101.33 kPa

FC(F)C(F)(F)C(F)(F)C(F)(F)C(F)(F)C(F)(F)C(F)(F)C(F)F [1,1,2,2,3,3,4,4,5,5,6,6,7,7,8,8-hexadecafluorooctane]
Settings | mass density [kg/m3] | vapor or sublimation pressure [kPa]
288.15 K | 1775.3 | –
289.31 K | – | 0.55
293.15 K | 1764.4 | –
293.26 K | – | 0.75
298.15 K | 1753.4 | –
298.2 K | – | 0.99
303.15 K | 1742.4 | –
303.18 K | – | 1.43
308.15 K | 1731.3 | –
308.17 K | – | 1.92
313.15 K | 1720.2 | –
313.18 K | – | 2.49
318.14 K | – | 3.12
323.15 K | – | 4.07
328.15 K | – | 5.26
333.14 K | – | 6.64

— the NIST ThermoML archive (doi:10.1016/j.fluid.2005.09.011)
